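Results reflect a 48-hour exposure of cells in 96-well plates to compound at five concentrations. GI50: concentration for 50% inhibition of growth.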 Activity calls are given as the source filed them. Cut-off read from the data, not from the text of the source: active = GI50 up to about 1.1 µM and inactive = higher.
Columns and labels:
Assay in all cases: DTP human tumour cell line panel, 48 h
RPMI-8226 = system: RPMI-8226
HCT-15 = system: HCT-15
OVCAR-4 = system: OVCAR-4
BT-549 = system: BT-549
MDA-MB-435 = system: MDA-MB-435
TK-10 = system: TK-10
U-251 = system: U-251
SW-620 = system: SW-620
SN12C = system: SN12C
NCI/ADR-RES = system: NCI/ADR-RES
OVCAR-3 = system: OVCAR-3
MOLT-4 = system: MOLT-4
HL-60 = system: HL-60
SF-539 = system: SF-539
RXF 393 = system: RXF 393
LOX IMVI = system: LOX IMVI
NCI-H460 = system: NCI-H460
T47D = system: T47D
MCF7 = system: MCF7
SF-295 = system: SF-295

Structure (SMILES) | GI50 (RPMI-8226) | GI50 (HCT-15) [µM] | GI50 (OVCAR-4) | GI50 (BT-549) | GI50 (MDA-MB-435) | GI50 (TK-10) | GI50 (U-251) | GI50 (SW-620) | GI50 (SN12C) | GI50 (NCI/ADR-RES) | GI50 (OVCAR-3) | GI50 (MOLT-4) | GI50 (HL-60) | GI50 (SF-539) | GI50 (RXF 393) | GI50 (LOX IMVI) | GI50 (NCI-H460) | GI50 (T47D) | GI50 (MCF7) | GI50 (SF-295)
CSC1=C(C#N)C(=S)N=C(N)C1C(=O)Nc1ccc(C)cc1 (stereo not given) | > 100 µM (inactive) | > 100 | > 100 µM (inactive) | > 100 µM (inactive) | > 100 µM (inactive) | > 100 µM (inactive) | > 100 µM (inactive) | > 100 µM (inactive) | > 100 µM (inactive) | > 100 µM (inactive) | > 100 µM (inactive) | > 100 µM (inactive) | > 100 µM (inactive) | > 100 µM (inactive) | > 100 µM (inactive) | > 100 µM (inactive) | > 100 µM (inactive) | > 100 µM (inactive) | – | –
O=c1oc2ccc3ccccc3c2cc1-c1cn2c(n1)sc1ccccc12 | > 100 µM (inactive) | > 100 | > 100 µM (inactive) | > 100 µM (inactive) | > 100 µM (inactive) | > 100 µM (inactive) | > 100 µM (inactive) | > 100 µM (inactive) | – | > 100 µM (inactive) | > 100 µM (inactive) | 3.06 µM (inactive) | > 100 µM (inactive) | – | > 100 µM (inactive) | > 100 µM (inactive) | > 100 µM (inactive) | – | 26.4 µM (inactive) | > 100 µM (inactive)
CCOC(=O)CC(N1CC1)N1CC1 | > 10 µM (inactive) | > 10 | > 10 µM (inactive) | – | > 10 µM (inactive) | > 10 µM (inactive) | > 10 µM (inactive) | > 10 µM (inactive) | > 10 µM (inactive) | > 10 µM (inactive) | > 10 µM (inactive) | > 10 µM (inactive) | > 10 µM (inactive) | > 10 µM (inactive) | > 10 µM (inactive) | > 10 µM (inactive) | > 10 µM (inactive) | > 10 µM (inactive) | > 10 µM (inactive) | > 10 µM (inactive)
CCCCNCCCNCCCNC(=O)c1csc(-c2csc(CCNC(=O)C(NC(=O)C(C)C(O)C(C)NC(=O)C(NC(=O)c3nc(C(CC(N)=O)NCC(N)C(N)=O)nc(N)c3C)C(OC3OC(CO)C(O)C(O)C3OC3OC(CO)C(O)C(OC(N)=O)C3O)c3c[nH]cn3)C(C)O)n2)n1 (stereo not given) | > 50 µM (inactive) | 24.9 | 5.75 µM (inactive) | > 50 µM (inactive) | 18.7 µM (inactive) | 17.3 µM (inactive) | 0.489 µM (active) | 15.2 µM (inactive) | 2.21 µM (inactive) | – | 2.86 µM (inactive) | 2.07 µM (inactive) | 14.9 µM (inactive) | < 0.01 µM (active) | – | 0.105 µM (active) | 0.0264 µM (active) | 12.9 µM (inactive) | 1.86 µM (inactive) | 0.0681 µM (active)
C/C(=N/NC(=S)NCCc1ccccn1)c1cnccn1 | 13.3 µM (inactive) | – | 24.4 µM (inactive) | 32.5 µM (inactive) | 53.3 µM (inactive) | 17 µM (inactive) | 20.2 µM (inactive) | 11.9 µM (inactive) | 21.9 µM (inactive) | – | 32.1 µM (inactive) | 3.26 µM (inactive) | – | – | – | 9.66 µM (inactive) | 52.5 µM (inactive) | 6.05 µM (inactive) | – | 24.4 µM (inactive)
CC(C)=CC1C(C(=O)OCc2cc3c(cc2Cl)OCO3)C1(C)C (stereo not given) | – | 30.1 | 49.8 µM (inactive) | 63 µM (inactive) | 33.7 µM (inactive) | 63.2 µM (inactive) | 12.6 µM (inactive) | 55.7 µM (inactive) | 28.6 µM (inactive) | 42.8 µM (inactive) | 20.6 µM (inactive) | 13.1 µM (inactive) | – | – | 44.1 µM (inactive) | 16.6 µM (inactive) | 24.4 µM (inactive) | 17.3 µM (inactive) | – | 26.3 µM (inactive)
Oc1cc(-c2ccc3ccccc3c2)nc2ncc(Cl)cc12 | 2.99 µM (inactive) | 3.57 | 6.43 µM (inactive) | 37.8 µM (inactive) | – | 12.7 µM (inactive) | – | 4.12 µM (inactive) | 9.06 µM (inactive) | 6.32 µM (inactive) | – | 3.27 µM (inactive) | – | 5.62 µM (inactive) | – | 5.33 µM (inactive) | – | 18.8 µM (inactive) | 2.44 µM (inactive) | –
